Results from publication PMC6627067, “Probing Multi-Target Action of Phlorotannins as New Monoamine Oxidase Inhibitors and Dopaminergic Receptor Modulators with the Potential for Treatment of Neuronal Disorders” (Marine Drugs, 2019).
Values joined by “and” are separate entries in the source; they are usually repeats but may differ in a detail not shown here. Identical values can stand only once. Like-named read-outs stand apart in the source and are kept apart here.

Columns and labels:
[1] = molecular target: T1, hD4 (DRD4) (Homo sapiens, UniProt P21917); conditions: for % Stimulation of control agonist response, hD4: agonist effect at 100 µM; for inhibition at 100 µM: read-out: % Inhibition of control agonist response, hD4
T1 sequence (P21917 1-419): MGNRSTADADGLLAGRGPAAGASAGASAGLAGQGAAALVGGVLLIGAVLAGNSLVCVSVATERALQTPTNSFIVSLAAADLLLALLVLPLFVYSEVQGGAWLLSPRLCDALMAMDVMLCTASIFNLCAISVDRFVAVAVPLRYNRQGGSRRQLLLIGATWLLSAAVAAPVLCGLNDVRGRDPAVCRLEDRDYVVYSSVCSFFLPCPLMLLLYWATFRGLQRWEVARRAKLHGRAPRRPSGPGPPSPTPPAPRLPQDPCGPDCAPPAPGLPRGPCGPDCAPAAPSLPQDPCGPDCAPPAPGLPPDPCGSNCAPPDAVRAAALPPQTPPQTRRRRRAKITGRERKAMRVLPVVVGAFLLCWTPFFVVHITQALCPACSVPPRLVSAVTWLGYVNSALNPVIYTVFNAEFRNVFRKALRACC

[2] = molecular target: hV1A (AVPR1A) (Homo sapiens, UniProt P37288); assay: GPCR cell-based functional assay, intracellular Ca2+ level, V1A; conditions: for % Stimulation of control agonist response, hV1A: agonist effect at 100 µM; for inhibition at 100 µM: antagonist effect at 100 µM, read-out: % Inhibition of control agonist response, hV1A
hV1A (AVPR1A), sequence (P37288 whole entry): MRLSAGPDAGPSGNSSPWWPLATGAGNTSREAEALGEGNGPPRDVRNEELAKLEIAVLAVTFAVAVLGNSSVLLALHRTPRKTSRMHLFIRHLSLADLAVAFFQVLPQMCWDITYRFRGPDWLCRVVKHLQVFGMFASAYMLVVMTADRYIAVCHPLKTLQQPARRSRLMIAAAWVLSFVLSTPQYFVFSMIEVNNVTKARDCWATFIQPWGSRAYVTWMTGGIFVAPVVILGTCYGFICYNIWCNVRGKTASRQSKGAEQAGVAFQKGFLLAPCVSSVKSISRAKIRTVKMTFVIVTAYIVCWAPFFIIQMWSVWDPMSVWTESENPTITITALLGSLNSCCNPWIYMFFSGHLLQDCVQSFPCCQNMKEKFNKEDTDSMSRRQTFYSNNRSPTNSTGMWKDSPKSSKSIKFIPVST

[3] = molecular target: T2, hMAO-A (Homo sapiens, UniProt P21397); parameters: method as in PMID 28251489; conditions: cited from earlier work
T2 sequence (P21397 1-527): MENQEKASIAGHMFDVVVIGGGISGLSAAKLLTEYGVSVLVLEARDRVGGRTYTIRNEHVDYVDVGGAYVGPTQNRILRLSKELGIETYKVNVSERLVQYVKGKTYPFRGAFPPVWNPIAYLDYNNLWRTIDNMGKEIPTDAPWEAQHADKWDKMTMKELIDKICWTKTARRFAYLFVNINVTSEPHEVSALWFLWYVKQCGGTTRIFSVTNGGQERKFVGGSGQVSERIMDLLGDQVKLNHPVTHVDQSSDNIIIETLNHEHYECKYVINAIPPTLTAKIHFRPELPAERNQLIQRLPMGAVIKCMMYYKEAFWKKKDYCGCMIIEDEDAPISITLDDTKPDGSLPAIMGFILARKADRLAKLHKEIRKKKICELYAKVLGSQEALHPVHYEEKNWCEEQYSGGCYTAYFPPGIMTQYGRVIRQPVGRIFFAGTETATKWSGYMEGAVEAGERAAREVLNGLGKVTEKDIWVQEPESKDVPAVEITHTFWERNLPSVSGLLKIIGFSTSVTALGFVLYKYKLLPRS

[4] = molecular target: T3, hD1 (DRD1) (Homo sapiens, UniProt P21728); conditions: agonist effect at 100 µM
T3 sequence (P21728 whole entry): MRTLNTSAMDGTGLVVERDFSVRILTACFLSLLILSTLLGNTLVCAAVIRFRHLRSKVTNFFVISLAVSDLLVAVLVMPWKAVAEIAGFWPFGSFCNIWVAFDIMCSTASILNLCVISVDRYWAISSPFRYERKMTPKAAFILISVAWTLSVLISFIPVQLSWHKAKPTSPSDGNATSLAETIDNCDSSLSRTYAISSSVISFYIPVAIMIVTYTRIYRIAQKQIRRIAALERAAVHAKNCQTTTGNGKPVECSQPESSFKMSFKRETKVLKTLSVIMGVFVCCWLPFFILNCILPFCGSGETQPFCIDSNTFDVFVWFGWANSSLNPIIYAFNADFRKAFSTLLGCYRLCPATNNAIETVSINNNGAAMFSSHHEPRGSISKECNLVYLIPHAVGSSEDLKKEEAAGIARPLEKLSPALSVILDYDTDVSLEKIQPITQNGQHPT

[5] = parameters: method as in PMID 25996411; conditions: cited from earlier work
[6] = molecular target: T4, hM5 (CHRM5) (Homo sapiens, UniProt P08912); assay: GPCR cell-based functional assay, intracellular Ca2+ level, M5; conditions: for % Stimulation of control agonist response, hM5: agonist effect at 100 µM; for inhibition at 100 µM: antagonist effect at 100 µM, read-out: % Inhibition of control agonist response, hM5
T4 sequence (P08912 1-532): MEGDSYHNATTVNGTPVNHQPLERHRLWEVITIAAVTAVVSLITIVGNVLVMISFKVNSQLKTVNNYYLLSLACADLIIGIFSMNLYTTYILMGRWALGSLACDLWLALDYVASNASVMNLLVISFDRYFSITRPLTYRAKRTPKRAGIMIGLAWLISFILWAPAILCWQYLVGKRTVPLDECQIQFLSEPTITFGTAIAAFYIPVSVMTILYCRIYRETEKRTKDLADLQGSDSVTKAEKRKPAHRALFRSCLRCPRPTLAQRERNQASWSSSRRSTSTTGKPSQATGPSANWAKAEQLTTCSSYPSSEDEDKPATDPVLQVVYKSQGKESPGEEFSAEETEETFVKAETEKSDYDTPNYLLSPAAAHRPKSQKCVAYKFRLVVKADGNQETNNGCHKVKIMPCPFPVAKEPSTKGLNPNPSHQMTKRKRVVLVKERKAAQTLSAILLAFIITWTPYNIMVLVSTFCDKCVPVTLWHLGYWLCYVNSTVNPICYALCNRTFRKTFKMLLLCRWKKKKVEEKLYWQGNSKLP

[7] = molecular target: T5, h5-HT1A (HTR1A) (Homo sapiens, UniProt P08908); assay: GPCR cell-based functional assay, intracellular Ca2+ level, 5-HT1A; conditions: for % Stimulation of control agonist response, h5-HT1A: agonist effect at 100 µM; for inhibition at 100 µM: antagonist effect at 100 µM, read-out: % Inhibition of control agonist response, h5-HT1A
T5 sequence (P08908 1-422): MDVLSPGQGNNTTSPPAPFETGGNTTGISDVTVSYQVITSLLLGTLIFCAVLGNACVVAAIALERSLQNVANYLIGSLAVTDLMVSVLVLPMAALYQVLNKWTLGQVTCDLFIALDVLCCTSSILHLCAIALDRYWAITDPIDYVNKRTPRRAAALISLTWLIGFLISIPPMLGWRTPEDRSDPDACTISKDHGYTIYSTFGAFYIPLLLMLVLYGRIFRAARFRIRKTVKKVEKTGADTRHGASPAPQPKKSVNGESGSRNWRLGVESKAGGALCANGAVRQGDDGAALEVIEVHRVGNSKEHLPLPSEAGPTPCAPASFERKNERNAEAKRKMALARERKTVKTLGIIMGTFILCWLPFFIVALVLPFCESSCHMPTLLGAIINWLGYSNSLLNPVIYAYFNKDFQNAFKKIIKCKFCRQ

[8] = molecular target: T6, hMAO-B (Homo sapiens, UniProt P27338); parameters: method as in PMID 28251489; conditions: cited from earlier work
T6 sequence (P27338 1-520): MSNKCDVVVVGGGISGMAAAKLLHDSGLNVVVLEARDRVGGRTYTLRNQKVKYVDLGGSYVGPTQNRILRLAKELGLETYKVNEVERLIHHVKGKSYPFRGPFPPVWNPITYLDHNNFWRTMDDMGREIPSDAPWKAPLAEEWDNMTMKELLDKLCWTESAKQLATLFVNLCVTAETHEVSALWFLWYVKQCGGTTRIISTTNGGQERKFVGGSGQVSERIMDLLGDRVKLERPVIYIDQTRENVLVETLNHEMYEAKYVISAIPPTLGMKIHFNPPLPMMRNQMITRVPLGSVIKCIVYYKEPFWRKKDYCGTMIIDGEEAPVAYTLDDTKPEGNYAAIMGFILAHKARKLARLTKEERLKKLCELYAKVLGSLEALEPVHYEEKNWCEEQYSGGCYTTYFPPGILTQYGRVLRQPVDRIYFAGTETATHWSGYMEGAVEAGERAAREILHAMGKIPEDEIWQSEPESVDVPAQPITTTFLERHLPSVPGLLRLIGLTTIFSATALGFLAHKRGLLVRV

[9] = molecular target: T3, hD1 (DRD1); assay: cell-based; conditions: read-out: % Inhibition of control agonist response, hD1
[10] = molecular target: T7, hD3 (DRD3) (Homo sapiens, UniProt P35462); conditions: for % Stimulation of control agonist response, hD3: agonist effect at 100 µM
T7 sequence (P35462 whole entry): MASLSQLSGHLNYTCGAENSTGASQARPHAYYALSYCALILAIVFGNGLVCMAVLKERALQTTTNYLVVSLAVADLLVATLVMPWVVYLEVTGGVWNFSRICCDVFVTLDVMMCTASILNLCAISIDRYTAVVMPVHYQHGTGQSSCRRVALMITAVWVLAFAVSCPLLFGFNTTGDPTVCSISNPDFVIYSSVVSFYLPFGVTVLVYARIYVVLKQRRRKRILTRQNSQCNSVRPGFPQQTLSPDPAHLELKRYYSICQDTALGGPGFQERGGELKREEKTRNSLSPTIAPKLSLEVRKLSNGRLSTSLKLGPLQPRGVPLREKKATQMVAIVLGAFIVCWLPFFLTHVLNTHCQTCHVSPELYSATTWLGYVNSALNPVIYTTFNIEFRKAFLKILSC

[11] = molecular target: hNK1 (TACR1) (Homo sapiens, UniProt P25103); assay: GPCR cell-based functional assay, intracellular Ca2+ level, NK1; conditions: for % Stimulation of control agonist response, hNK1: agonist effect at 100 µM; for inhibition at 100 µM: antagonist effect at 100 µM, read-out: % Inhibition of control agonist response, hNK1
hNK1 (TACR1), sequence (P25103 whole entry): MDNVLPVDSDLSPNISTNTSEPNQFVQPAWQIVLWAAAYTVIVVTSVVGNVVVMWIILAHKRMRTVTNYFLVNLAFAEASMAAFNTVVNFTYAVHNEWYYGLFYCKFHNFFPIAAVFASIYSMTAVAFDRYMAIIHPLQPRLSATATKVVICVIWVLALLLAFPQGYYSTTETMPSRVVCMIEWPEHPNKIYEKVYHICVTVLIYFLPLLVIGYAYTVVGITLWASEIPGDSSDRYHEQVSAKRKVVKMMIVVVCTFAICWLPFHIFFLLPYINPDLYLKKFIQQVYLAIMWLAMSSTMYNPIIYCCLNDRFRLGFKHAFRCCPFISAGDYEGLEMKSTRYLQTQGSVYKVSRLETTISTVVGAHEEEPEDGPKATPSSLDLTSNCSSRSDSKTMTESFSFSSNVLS

[12] = molecular target: T7, hD3 (DRD3); assay: cell-based; conditions: for inhibition at 100 µM: read-out: % Inhibition of control agonist response, hD3
[13] = molecular target: T6, hMAO-B; assay: hMAO-B inhibition, chemiluminescent MAO-Glo assay and kinetic analysis; assay type: biochemical; conditions: for IC50 / IC50 hMAO-B: recombinant hMAO-B, mean ± SD, n = 3
[14] = molecular target: T2, hMAO-A; assay: hMAO-A inhibition, chemiluminescent MAO-Glo assay and kinetic analysis; assay type: biochemical
[15] = ratio of hMAO-A IC50/hMAO-B IC50
[16] = recombinant hMAO-A, mean ± SD, n = 3
[17] = Kiu from secondary plot of 1/Vmaxapp versus concentration
[18] = Lineweaver-Burk plots, NC = noncompetitive
[19] = recombinant hMAO-A, mean ± SD, n = 3, read-out: IC50 hMAO-A
[20] = concentration-dependent stimulation, mean ± SD

SMILES	EC50 [1]	% Stimulation of control agonist response, hD4 [1]	inhibition at 100 µM [1]	% Stimulation of control agonist response, hV1A [2]	inhibition at 100 µM [2]	% Stimulation of control agonist response, hD1 [4]	% Stimulation of control agonist response, hM5 [6]	inhibition at 100 µM [6]	% Stimulation of control agonist response, h5-HT1A [7]	inhibition at 100 µM [7]	inhibition at 100 µM [9]	% Stimulation of control agonist response, hD3 [10]	% Stimulation of control agonist response, hNK1 [11]	inhibition at 100 µM [11]	EC50 [12]	inhibition at 100 µM [12]	IC50 [13]	IC50 hMAO-B [13]	IC50 hMAO-A [14, 16]	IC50 [14, 19]	other results
Oc1cc(O)cc(Oc2c(O)cc(O)c3c2Oc2c(O)cc(Oc4c(O)cc(Oc5c(O)cc(O)c6c5Oc5c(O)cc(O)cc5O6)cc4O)cc2O3)c1 [Dieckol, dieckol]	34 ± 8.62 µM	74.43 ± 6.37 ^B %	-5.35%	64.20 ± 0.14 ^A %	46.2%	1.05 ± 0.21 ^A %	7.60 ± 17.11 ^AB %	19.6%	1.75 ± 0.64 ^A %	76.8%	60.6%	81.10 ± 0.66 ^B %	54.70 ± 1.41 ^B %	77.7%	44.2 ± 3.25 µM	-2.5%					% Stimulation of control agonist response, hD4 ([1]; listed as dieckol): 74.43 ± 6.37%; % Stimulation of control agonist response, hV1A ([2]; listed as dieckol): 64.20 ± 0.14% and 64.2%; Ki [3]: 20.3 µM; SI (selective index) [3, 15]: 0.26; IC50 ([3]; recombinant hMAO-A, obtained from the literature): 11.4 ± 1.06 µM; BBB penetration [5]: effectively penetrate the BBB; Ki [8]: 18.5 µM; IC50 ([8]; recombinant hMAO-B, obtained from the literature): 43.4 ± 0.73 µM; % Stimulation of control agonist response, hD3 ([10]; listed as dieckol): 81.10 ± 0.66%; % Stimulation of control agonist response, hNK1 ([11]; listed as dieckol): 54.70%
Oc1cc(O)c2oc3cc(O)c4oc5cc(O)cc(O)c5oc4c3oc2c1 [Dioxinodehydroeckol, dioxinodehydroeckol]																	> 300 µM	no inhibitory activity	no inhibitory activity		IC50 [14]: > 300 µM
FC(F)(F)c1cc(CO[C@H]2CCCN[C@H]2c2ccccc2)cc(C(F)(F)F)c1 [L-733,060, reference compound]																					IC50 ([11]; positive control, read-out: IC50 of standard antagonist, hNK1): 0.0016 µM
Oc1cc(O)cc(Oc2c(O)cc(O)c3c2Oc2c(O)cc4oc5c(Oc6cc(O)cc(O)c6)c(O)cc(O)c5c4c2O3)c1 [PFF-A, phlorofucofuroeckol-A]	23.5 ± 1.55 µM	98.50 ± 12.50% and 98.50 ± 12.50 ^A %	-26.1%	38.45 ± 7.14 ^B %	52.9%	0.25 ± 3.18 ^A %	29.20 ± 10.75 ^A %	56%	1.65 ± 0.49 ^A %	62.5%	81.4%	98.57 ± 2.14% and 98.57 ± 2.14 ^A %	67.65 ± 9.26 ^A %	88.2%	19.2 ± 0.48 µM	-15.2%	4.89 ± 0.32 µM			9.22 ± 0.19 µM	Ki [13, 17]: 2.69 µM; Inhibition type hMAO-B [13, 18]: noncompetitive; Ki [14, 17]: 5.18 µM; Inhibition type hMAO-A [14, 18]: noncompetitive; SI (selective index) [14, 15]: 1.89
Oc1cc(O)cc(O)c1 [Phloroglucinol, phloroglucinol]		−9.95 ± 14.50 ^C %	-7.05%	−0.80 ± 0.57 ^C %	13.9%	0.20 ± 3.82 ^A %	−6.05 ± 0.78 ^B %	-21.6%	0.10 ± 0.28 ^B %	-4.15%	4.95%	−0.15 ± 14.07 ^C %	−0.85 ± 0.21 ^C %	-8.05%		-6.75%	> 900 µM	no inhibitory activity	no inhibitory activity	> 900 µM	EC50, dopamine D4 agonist effect [1, 20]: No activity; EC50, dopamine D3 agonist effect [10, 20]: No activity
